Read-outs that look alike come from different tables or passages of the source.
Columns and labels:
[1] = biological target: mTOR (Homo sapiens (Human), UniProt P42345); assay: Kinase screening assay (IC50); assay type: biochemical
[2] = biological target: PDGFRa (Homo sapiens (Human), UniProt P16234); assay: Kinase screening assay (IC50); assay type: biochemical
[3] = Liver microsome stability; assay type: in vitro ADME; conditions: % of unmodified drug after 30 min incubation with liver microsomes
[4] = biological target: CYP1A2 (Homo sapiens (Human), UniProt P05177); assay: in vitro
[5] = rat, serum
[6] = biological target: CYP3A4 (Homo sapiens (Human), UniProt P08684); assay: CYP P450 inhibition
[7] = biological target: CYP2C9 (Homo sapiens (Human), UniProt P11712); assay: CYP P450 inhibition
Chain of CYP2C9 (P11712 whole entry): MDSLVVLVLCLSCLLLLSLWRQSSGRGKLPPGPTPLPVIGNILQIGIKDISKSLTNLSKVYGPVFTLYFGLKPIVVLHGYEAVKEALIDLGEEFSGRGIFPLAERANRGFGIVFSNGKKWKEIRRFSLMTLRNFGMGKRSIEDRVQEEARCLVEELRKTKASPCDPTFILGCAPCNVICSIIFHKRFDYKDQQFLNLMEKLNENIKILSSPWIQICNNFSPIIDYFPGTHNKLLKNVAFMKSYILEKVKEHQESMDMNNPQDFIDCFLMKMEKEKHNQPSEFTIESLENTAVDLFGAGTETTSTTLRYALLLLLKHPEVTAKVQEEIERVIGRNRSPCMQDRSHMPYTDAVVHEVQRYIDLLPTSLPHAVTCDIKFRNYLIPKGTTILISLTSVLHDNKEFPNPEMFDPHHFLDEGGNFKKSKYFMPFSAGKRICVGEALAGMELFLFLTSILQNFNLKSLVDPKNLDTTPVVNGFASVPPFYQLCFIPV

[8] = biological target: CYP2D6 (Homo sapiens (Human), UniProt P10635); assay: CYP P450 inhibition
Chain of CYP2D6 (P10635 whole entry): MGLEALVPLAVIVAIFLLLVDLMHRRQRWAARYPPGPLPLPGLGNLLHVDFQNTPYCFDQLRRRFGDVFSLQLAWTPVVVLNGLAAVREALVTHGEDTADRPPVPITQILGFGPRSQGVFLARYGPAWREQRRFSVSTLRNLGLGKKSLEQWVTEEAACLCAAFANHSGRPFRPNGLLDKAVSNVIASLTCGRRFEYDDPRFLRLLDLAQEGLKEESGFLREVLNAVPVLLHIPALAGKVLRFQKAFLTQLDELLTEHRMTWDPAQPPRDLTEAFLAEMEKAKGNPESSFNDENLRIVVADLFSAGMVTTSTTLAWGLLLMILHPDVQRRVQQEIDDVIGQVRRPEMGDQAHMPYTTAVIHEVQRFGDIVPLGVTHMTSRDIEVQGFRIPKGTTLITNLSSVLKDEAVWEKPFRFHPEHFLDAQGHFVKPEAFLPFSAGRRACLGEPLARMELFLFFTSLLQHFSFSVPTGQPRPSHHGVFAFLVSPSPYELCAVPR

[9] = biological target: CYP2C19 (Homo sapiens (Human), UniProt P33261); assay: CYP P450 inhibition
Chain of CYP2C19 (P33261 whole entry): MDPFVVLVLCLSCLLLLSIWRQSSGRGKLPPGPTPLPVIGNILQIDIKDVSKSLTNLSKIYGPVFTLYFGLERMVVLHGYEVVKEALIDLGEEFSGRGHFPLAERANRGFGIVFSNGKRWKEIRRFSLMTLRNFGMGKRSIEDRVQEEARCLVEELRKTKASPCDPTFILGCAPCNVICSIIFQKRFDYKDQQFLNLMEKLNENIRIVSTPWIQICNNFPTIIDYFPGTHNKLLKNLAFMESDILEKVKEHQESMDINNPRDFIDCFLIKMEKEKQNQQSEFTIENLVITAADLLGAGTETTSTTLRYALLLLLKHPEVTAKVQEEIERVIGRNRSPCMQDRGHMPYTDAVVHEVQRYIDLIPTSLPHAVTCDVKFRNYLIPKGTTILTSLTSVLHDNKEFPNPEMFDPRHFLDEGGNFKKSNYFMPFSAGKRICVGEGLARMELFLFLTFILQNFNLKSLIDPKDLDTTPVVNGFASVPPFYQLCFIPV

[10] = human, serum
[11] = biological target: KIT (Homo sapiens (Human), UniProt P10721); assay: Kinase screening assay (IC50)
[12] = biological target: RET (Homo sapiens (Human), UniProt P07949); assay: Kinase screening assay (IC50)
[13] = biological target: BLK (Homo sapiens (Human), UniProt P51451); assay: Kinase screening assay (IC50)
Chain of BLK (P51451 whole entry): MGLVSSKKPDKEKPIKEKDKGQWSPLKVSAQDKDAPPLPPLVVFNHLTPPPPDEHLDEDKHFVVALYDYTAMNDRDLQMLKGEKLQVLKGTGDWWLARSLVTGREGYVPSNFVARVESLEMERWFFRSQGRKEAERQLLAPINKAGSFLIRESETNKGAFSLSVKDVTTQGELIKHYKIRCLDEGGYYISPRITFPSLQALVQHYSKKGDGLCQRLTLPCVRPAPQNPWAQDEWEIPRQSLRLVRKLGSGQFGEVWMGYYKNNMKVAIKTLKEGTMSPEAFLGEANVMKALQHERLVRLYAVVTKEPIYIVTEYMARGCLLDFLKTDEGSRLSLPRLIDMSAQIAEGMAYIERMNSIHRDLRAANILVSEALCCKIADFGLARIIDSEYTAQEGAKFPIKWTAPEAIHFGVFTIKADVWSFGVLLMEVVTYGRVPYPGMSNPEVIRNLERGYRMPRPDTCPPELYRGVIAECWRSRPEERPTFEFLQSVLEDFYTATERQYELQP

[14] = biological target: FGR (Homo sapiens (Human), UniProt P09769); assay: Kinase screening assay (IC50)
Chain of FGR (P09769 whole entry): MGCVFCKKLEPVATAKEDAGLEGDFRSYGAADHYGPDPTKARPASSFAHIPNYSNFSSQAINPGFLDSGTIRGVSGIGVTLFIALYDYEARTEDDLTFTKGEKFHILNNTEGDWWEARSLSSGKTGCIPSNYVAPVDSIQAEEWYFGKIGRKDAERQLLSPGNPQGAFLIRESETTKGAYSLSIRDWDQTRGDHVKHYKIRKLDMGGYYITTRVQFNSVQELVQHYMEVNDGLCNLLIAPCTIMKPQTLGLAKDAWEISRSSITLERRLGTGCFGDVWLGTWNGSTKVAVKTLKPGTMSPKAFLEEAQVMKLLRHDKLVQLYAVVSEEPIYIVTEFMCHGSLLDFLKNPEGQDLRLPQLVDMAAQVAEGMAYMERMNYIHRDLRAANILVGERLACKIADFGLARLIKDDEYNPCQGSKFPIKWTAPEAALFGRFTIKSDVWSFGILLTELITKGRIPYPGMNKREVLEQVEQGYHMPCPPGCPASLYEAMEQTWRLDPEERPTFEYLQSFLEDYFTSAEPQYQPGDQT

[15] = biological target: FRK/PTK5 (Homo sapiens (Human), UniProt P42685); assay: Kinase screening assay (IC50)
Chain of FRK/PTK5 (P42685 whole entry): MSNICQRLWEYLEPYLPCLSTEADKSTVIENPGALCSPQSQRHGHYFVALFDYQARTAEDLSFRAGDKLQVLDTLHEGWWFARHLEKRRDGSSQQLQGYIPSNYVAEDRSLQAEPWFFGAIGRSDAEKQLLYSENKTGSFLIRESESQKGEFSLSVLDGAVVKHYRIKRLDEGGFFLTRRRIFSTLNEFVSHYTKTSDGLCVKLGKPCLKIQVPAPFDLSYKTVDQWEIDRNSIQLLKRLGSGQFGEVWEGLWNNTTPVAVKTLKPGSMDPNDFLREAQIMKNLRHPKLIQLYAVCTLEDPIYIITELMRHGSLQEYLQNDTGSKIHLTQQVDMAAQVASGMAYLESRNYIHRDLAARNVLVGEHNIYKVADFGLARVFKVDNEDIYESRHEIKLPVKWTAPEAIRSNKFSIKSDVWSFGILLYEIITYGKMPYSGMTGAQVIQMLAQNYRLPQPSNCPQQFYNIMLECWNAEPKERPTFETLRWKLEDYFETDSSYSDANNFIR

[16] = biological target: FYN (Homo sapiens (Human), UniProt P06241); assay: Kinase screening assay (IC50)
[17] = biological target: HCK (Homo sapiens (Human), UniProt P08631); assay: Kinase screening assay (IC50)
[18] = biological target: LCK (Homo sapiens (Human), UniProt P06239); assay: Kinase screening assay (IC50)
[19] = biological target: LYN (Homo sapiens (Human), UniProt P07948); assay: Kinase screening assay (IC50)
Chain of LYN (P07948 whole entry): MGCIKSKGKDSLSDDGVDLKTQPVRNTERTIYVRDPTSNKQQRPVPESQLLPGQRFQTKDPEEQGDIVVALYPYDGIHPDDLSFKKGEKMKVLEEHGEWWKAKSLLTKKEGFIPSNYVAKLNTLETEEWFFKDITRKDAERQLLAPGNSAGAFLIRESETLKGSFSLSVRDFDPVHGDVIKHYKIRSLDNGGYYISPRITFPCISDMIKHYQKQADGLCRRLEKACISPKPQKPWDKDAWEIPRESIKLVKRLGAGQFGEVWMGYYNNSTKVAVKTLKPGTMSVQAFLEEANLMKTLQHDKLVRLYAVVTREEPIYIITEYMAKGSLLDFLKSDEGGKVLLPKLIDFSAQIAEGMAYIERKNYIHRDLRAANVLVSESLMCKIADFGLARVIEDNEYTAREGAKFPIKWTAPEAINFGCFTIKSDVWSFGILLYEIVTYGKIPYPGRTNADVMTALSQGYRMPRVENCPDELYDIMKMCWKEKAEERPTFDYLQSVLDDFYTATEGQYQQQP

[20] = biological target: YES (Homo sapiens (Human), UniProt P07947); assay: Kinase screening assay (IC50)
[21] = biological target: T1, hERG channel (Homo sapiens (Human), UniProt Q12809); assay: hERG Safety Assay, Ionworks high-throughput electrophysiology
[22] = biological target: T1, hERG channel; assay: Predictor hERG Fluorescence Polarization Assay; assay type: binding; conditions: fluorescence polarization kit; read-out: hERG channel inhibition IC50
From the text: These experiments corroborated the safety of the compounds.

[23] = Stability in human plasma; assay type: in vitro ADME; conditions: % of unmodified drug after 120 min in plasma
[24] = Stability in mouse plasma; assay type: in vitro ADME; conditions: % of unmodified drug after 120 min in plasma
[25] = Stability in rat plasma; conditions: % of unmodified drug after 120 min in plasma
[26] = mouse, in vivo
[27] = in vivo; conditions: female, mouse
[28] = PBS, aqueous buffer
[29] = 10 μM ATP, read-out: Target inhibition (IC50) mTOR
[30] = read-out: Kinase Screening (IC50) mTOR
[31] = 10 μM ATP, read-out: Target inhibition (IC50) PDGFRa
[32] = read-out: Kinase Screening (IC50) PDGFRa
[33] = read-out: Kinase Screening (IC50) c-KIT
[34] = read-out: Target inhibition (IC50) KIT, 10 μM ATP
[35] = read-out: Kinase Screening (IC50) RET
[36] = read-out: Target inhibition (IC50) RET, 10 μM ATP
[37] = read-out: Kinase Screening (IC50) BLK, Src Family
[38] = read-out: Target inhibition (IC50) BLK, 10 μM ATP
[39] = read-out: Kinase Screening (IC50) FGR, Src Family
[40] = read-out: Target inhibition (IC50) FGR, 10 μM ATP
[41] = read-out: Kinase Screening (IC50) FRK, Src Family
[42] = read-out: Target inhibition (IC50) FRK/PTK5, 10 μM ATP
[43] = read-out: Kinase Screening (IC50) FYN, Src Family
[44] = read-out: Target inhibition (IC50) FYN, 10 μM ATP
[45] = read-out: Kinase Screening (IC50) HCK, Src Family
[46] = read-out: Target inhibition (IC50) HCK, 10 μM ATP
[47] = read-out: Kinase Screening (IC50) LCK, Src Family
[48] = read-out: Target inhibition (IC50) LCK, 10 μM ATP
[49] = read-out: Kinase Screening (IC50) LYN, Src Family
[50] = read-out: Target inhibition (IC50) LYN, 10 μM ATP

Chain of PDGFRa (P16234 24-1089): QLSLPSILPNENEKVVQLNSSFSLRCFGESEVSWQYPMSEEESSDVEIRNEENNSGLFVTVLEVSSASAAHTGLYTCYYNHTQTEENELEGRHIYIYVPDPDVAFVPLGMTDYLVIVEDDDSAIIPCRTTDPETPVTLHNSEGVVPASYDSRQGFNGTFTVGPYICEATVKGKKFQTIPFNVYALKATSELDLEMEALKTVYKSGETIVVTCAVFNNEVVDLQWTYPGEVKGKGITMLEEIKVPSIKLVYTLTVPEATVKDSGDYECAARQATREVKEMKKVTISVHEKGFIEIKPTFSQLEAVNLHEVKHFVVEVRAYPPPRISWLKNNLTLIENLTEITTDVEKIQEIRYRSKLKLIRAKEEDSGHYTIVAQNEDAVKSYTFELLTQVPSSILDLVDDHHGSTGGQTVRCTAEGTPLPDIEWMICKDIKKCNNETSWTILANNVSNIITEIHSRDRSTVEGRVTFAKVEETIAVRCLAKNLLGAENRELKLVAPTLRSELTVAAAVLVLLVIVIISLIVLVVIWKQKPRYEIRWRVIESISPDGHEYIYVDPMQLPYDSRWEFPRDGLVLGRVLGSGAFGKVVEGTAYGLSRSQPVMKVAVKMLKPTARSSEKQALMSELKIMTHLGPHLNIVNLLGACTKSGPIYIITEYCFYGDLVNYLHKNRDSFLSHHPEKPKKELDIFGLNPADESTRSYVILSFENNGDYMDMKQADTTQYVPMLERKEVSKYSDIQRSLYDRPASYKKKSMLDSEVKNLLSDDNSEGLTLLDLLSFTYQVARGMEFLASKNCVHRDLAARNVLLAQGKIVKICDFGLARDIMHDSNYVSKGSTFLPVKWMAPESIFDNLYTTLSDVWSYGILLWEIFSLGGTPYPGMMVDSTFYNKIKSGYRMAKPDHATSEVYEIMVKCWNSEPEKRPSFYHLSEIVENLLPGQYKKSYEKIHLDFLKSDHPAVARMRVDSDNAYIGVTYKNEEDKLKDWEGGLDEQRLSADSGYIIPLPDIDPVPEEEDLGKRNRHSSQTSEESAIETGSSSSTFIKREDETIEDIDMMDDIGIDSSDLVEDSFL

| SMILES | IC50 [1, 29] [nM] | IC50 [1, 30] [nM] | IC50 [2, 31] [nM] | IC50 [2, 32] [nM] | 30 min Liver Microsome stability [3] [%] | inhibition at 10 µM [4] [%] | fraction unbound [5] | fraction unbound [10] | IC50 [11, 33] [nM] | IC50 [12, 35] [nM] | IC50 [12, 36] [nM] | IC50 [14, 39] [nM] | IC50 [14, 40] [nM] | IC50 [16, 43] [nM] | IC50 [16, 44] [nM] | IC50 [18, 47] [nM] | IC50 [18, 48] [nM] | IC50 [19, 49] [nM] | IC50 [19, 50] [nM] | IC50 [21] [nM] | other results |
| --- | --- | --- | --- | --- | --- | --- | --- | --- | --- | --- | --- | --- | --- | --- | --- | --- | --- | --- | --- | --- | --- |
| COc1cc(-c2nn(CCN3CCC(N4CCCC4)CC3)c3ncnc(N)c23)ccc1NC(=O)OC(C)(C)C [Compound 518, tert-butyl N-[4-[4-amino-1-[2-(4-pyrrolidin-1-yl-1-piperidyl)ethyl]pyrazolo[3,4-d]pyrimidin-3-yl]-2-methoxy-phenyl]carbamate] | > 1000 | > 1000 | > 1000 | > 1000 | 87.0 | 6.9 | 0.134 | 0.172 | > 1000 | > 1000 | > 1000 | < 10 | < 10 | < 10 | < 10 | < 10 | < 10 | < 10 | < 10 | 20100 | inhibition at 10 µM [6]: -29.8%; inhibition at 10 µM [7]: -92.3%; inhibition at 10 µM [8]: 6.7%; inhibition at 10 µM [9]: -6.5%; IC50 [11, 34]: > 1000 nM; IC50 [13, 37]: < 10 nM; IC50 [13, 38]: < 10 nM; IC50 [15, 41]: < 10 nM; IC50 [15, 42]: < 10 nM; IC50 [17, 45]: < 10 nM; IC50 [17, 46]: < 10 nM; IC50 ([20]; read-out: Kinase Screening (IC50) YES, Src Family): < 10 nM; IC50 ([20]; read-out: Target inhibition (IC50) YES, 10 μM ATP): < 10 nM |
| COc1cc(-c2nn(CCN3CCC(N(C)C)CC3)c3ncnc(N)c23)ccc1NCc1ccccc1 [Compound 533, 3-[4-(benzylamino)-3-methoxy-phenyl]-1-[2-[4-(dimethylamino)-1-piperidyl]ethyl]pyrazolo[3,4-d]pyrimidin-4-amine] | > 1000 | > 1000 | > 1000 | > 1000 | 98.8 | 8.3 | 0.106 | 0.118 | 100 to 1000 | > 1000 | > 1000 | < 10 | < 10 | < 10 | < 10 | < 10 | < 10 | < 10 | < 10 | 2550 | IC50 [22]: 10000 to 15000 nM; inhibition at 10 µM [6]: 3.1%; inhibition at 10 µM [7]: -35.4%; inhibition at 10 µM [8]: 7.4%; inhibition at 10 µM [9]: 26.8%; IC50 [11]: 100 to 1000 nM; IC50 [13, 37]: < 10 nM; IC50 [13, 38]: < 10 nM; IC50 [17, 45]: < 10 nM; IC50 [17, 46]: < 10 nM |
| CN(C)C1CCN(CCn2nc(-c3ccc(CC(=O)OC(C)(C)C)cc3)c3c(N)ncnc32)CC1 [Compound 553, tert-butyl 2-[4-[4-amino-1-[2-[4-(dimethylamino)-1-piperidyl]ethyl]pyrazolo[3,4-d]pyrimidin-3-yl]phenyl]acetate] | > 1000 | > 1000 | > 1000 | > 1000 |  |  |  |  | > 1000 | > 1000 | > 1000 | < 10 | < 10 | < 10 | < 10 | < 10 | < 10 | < 10 | < 10 | 12600 | Stability in human plasma [23]: 98.3%; Stability in mouse plasma [24]: 70.4%; Stability in rat plasma [25]: 68.2%; IC50 [11, 34]: > 1000 nM |
| COc1cc(-c2nn(CCN3CCC(N(C)C)CC3)c3ncnc(N)c23)ccc1CC(=O)OC(C)(C)C [Compound 565, tert-butyl 2-[4-[4-amino-1-[2-[4-(dimethylamino)-1-piperidyl]ethyl]pyrazolo[3,4-d]pyrimidin-3-yl]-2-methoxy-phenyl]acetate] | > 1000 | > 1000 | > 1000 | > 1000 | 78.7 | 4.3 | 0.139 | 0.177 | > 1000 | > 1000 | > 1000 | < 10 | < 10 | < 10 | < 10 | < 10 | < 10 | < 10 | < 10 | > 25000 | Stability in human plasma [23]: 94%; Stability in mouse plasma [24]: 100%; toxic effects in PK study [26]: no toxic effects; bioavailability [27]: 52%; half-life [27]: 2 h; bioavailability ([27]; po): 52%; solubility [28]: > 100 mg/mL; inhibition at 10 µM [6]: 5.7%; inhibition at 10 µM [7]: -35.8%; inhibition at 10 µM [8]: 9.4%; inhibition at 10 µM [9]: -0.4%; Stability in rat plasma [25]: 93.3%^; IC50 [11, 34]: > 1000 nM; IC50 [13, 37]: < 10 nM; IC50 [13, 38]: < 10 nM; IC50 [15, 41]: < 10 nM; IC50 [15, 42]: < 10 nM |
| Cc1nc(Nc2ncc(C(=O)Nc3c(C)cccc3Cl)s2)cc(N2CCN(CCO)CC2)n1 [Dasatinib, reference compound] |  |  |  |  |  |  |  | 0.06 |  |  |  |  |  |  |  |  |  |  |  |  | solubility [28]: < 0.1 mg/mL |
| COc1ccc([C@@H]2Sc3ccccc3N(CCN(C)C)C(=O)[C@@H]2OC(C)=O)cc1 [Diltiazem, reference compound] |  |  |  |  |  |  |  |  |  |  |  |  |  |  |  |  |  |  |  |  | Stability in rat plasma [25]: 21.5% |
| CC1CC(OC(=O)C(O)c2ccccc2)CC(C)(C)N1C (centres unmarked) [Eucatropine, reference compound] |  |  |  |  |  |  |  |  |  |  |  |  |  |  |  |  |  |  |  |  | Stability in human plasma [23]: 10.5%; Stability in mouse plasma [24]: 20.3% |

From patent US10294227B2, “Compounds” (UNIVERSITY COURT OF THE UNIVERSITY OF EDINBURGH, priority 2015, dated 2019)
